Data on 29 compounds can be found in ChEMBL document CHEMBL1140081 (J Med Chem, 2008).

The test system of data set [1] is Human immunodeficiency virus 1. As to the kind of experiment: Antiviral activity against HIV1 3B in human MT4 cells in presence of 50% normal human serum. The data set is classed as functional. The following applies: Human immunodeficiency virus 1, 3B, MT4; read-out: CIC95.
The test system of data set [2] is Human immunodeficiency virus 1. The data set is described as follows: Antiviral activity against HIV1 3B in human MT4 cells in presence of 10% heat-inactivated fetal bovine serum. The note with it: Human immunodeficiency virus 1, 3B, read-out: CIC95.
The test system of data set [3] is Human immunodeficiency virus 1. As to the kind of experiment: Antiviral activity against HIV1 with integrase T66I/M154 mutation by single cycle infectivity assay in presence of 10%FBS. The data set is classed as functional.
In data set [4] the test system is Human immunodeficiency virus 1. As to the kind of experiment: Antiviral activity against HIV1 with integrase T66I/S153Y mutation by single cycle infectivity assay in presence of 10%FBS. The data set is classed as functional.
Data set [5] has as its system Human immunodeficiency virus 1. The data set is described as follows: Antiviral activity against HIV1 with integrase N155S mutation by single cycle infectivity assay in presence of 10%FBS. It counts as functional.
In data set [6] the test system is Human immunodeficiency virus 1. As to the kind of experiment: Antiviral activity against HIV1 with integrase T125K/F121Y mutation by single cycle infectivity assay in presence of 10%FBS. It counts as functional.
For data set [7], the system named is Human immunodeficiency virus 1. The data set is described as follows: Antiviral activity against HIV1 with integrase T66I/L74M/V151I mutation by single cycle infectivity assay in presence of 10%FBS. The data set is classed as functional.
Data set [8] is described as follows: Cmax in po dosed Sprague-Dawley rat. The data set is classed as ADME, organism-based. Details: route oral. The following applies: in vivo.
The nature of data set [9]: AUC in Sprague-Dawley rat at 3 mg/kg, po. The data set is classed as ADME, organism-based. Details: dose 3 mg/kg, route oral. The note with it: plasma.
Data set [10] in a line: Protein binding in Sprague-Dawley rat plasma. It counts as ADME, cell-free. The note with it: read-out: PPB (converted).
The nature of data set [11]: Protein binding in dog plasma. The data set is classed as ADME, cell-free, Canis lupus familiaris. The following applies: read-out: PPB (converted).
Data set [12] can be described thus: Protein binding in rhesus monkey plasma. The data set is classed as ADME, cell-free, Macaca mulatta. The note with it: read-out: PPB (converted).
Data set [13] is described as follows: Protein binding in human plasma. It counts as ADME, cell-free. The note with it: read-out: PPB (converted).
The target of data set [14] is Human immunodeficiency virus type 1 integrase (Human immunodeficiency virus 1, UniProt Q7ZJM1). As to the kind of experiment: Inhibition of HIV1 recombinant integrase strand transfer activity.
Human immunodeficiency virus type 1 integrase, sequence (Q7ZJM1 whole entry): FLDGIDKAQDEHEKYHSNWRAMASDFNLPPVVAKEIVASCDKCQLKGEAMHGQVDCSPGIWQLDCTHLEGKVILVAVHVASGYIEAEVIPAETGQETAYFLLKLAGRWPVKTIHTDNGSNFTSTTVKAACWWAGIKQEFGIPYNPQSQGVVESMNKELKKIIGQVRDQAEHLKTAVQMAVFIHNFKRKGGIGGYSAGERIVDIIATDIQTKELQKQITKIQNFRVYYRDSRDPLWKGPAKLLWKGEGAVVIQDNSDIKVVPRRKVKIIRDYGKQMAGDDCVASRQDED
The nature of data set [15]: Oral bioavailability in po dosed Sprague-Dawley rat. It counts as ADME, organism-based. The following applies: in vivo.
Data set [16] can be described thus: Oral bioavailability in po dosed dog. The data set is classed as ADME, organism-based, Canis lupus familiaris. The following applies: in vivo.
The nature of data set [17]: Cmax in Sprague-Dawley rat at 3 mg/kg, po. It counts as ADME, organism-based. Also on record: dose 3 mg/kg, route oral. The note with it: in vivo.
The nature of data set [18]: Cmax in dog at 10 mg/kg, po. It counts as ADME, organism-based, Canis lupus familiaris. Details: dose 10 mg/kg, route oral. The note with it: in vivo.
A short description of data set [19]: Terminal half life in po dosed Sprague-Dawley rat. The data set is classed as ADME, organism-based. The following applies: in vivo.
A short description of data set [20]: Terminal half life in dog at 10 mg/kg, po. The data set is classed as ADME, organism-based, Canis lupus familiaris. Also on record: dose 10 mg/kg, route oral. The note with it: in vivo, read-out: beta t1/2 (converted).
Data set [21] is described as follows: AUC in dog at 10 mg/kg, po. Also on record: dose 10 mg/kg, route oral. The data set is classed as ADME, organism-based, Canis lupus familiaris. The following applies: plasma.
A short description of data set [22]: Plasma concentration in dog at 10 mg/kg, po after 12 hrs. The data set is classed as ADME, organism-based, Canis lupus familiaris. Details: dose 10 mg/kg, route oral.

Each structure is given as a SMILES string. pIC50: −log10 of the molar value.

Regarding `CN(C)C(C)(C)c1nc(O)c(O)c(C(=O)NCc2ccc(F)cc2)n1`, the IC95 was 78 nM in [1] and 60 nM in [2].
In the same order, the values of `CN1CCOCC1c1nc(C(=O)NCc2ccc(F)cc2)c(O)c(=O)n1C` (stereo not drawn) are 100 nM and 60 nM.
Turning to `O=C(NCc1ccc(F)cc1)c1nc(N2CCCCS2(=O)=O)c2cccnc2c1O`, the Activity in data set [3] is on record as 3%; in data set [4] it was 1.3%; in data set [5], 10%; in [6], 12%; in data set [7], 9%.
Broadly, the Cmax is the highest concentration seen after dosing. A word on the AUC: it is the area under the concentration-time curve, a measure of exposure. `Cc1nnc(C(=O)NC(C)(C)c2nc(C(=O)NCc3ccc(F)cc3)c([O-])c(=O)n2C)o1.[Na+]` displayed a Cmax in data set [8] of 1000 nM. The AUC in [9] was 1.4 µM·h. Also, the fraction unbound in data set [10] is 0.74; in [11], 0.71; in data set [12], 0.85; in data set [13], 0.83.
By pIC50 is commonly meant −log10 of the IC50, conventionally taken in molar units. As for `Cn1c(C(C)(C)NC(=O)c2cccnn2)nc(C(=O)NCc2ccc(F)cc2)c(O)c1=O`, the pIC50 in data set [14] is 7.82. Besides, the values for the IC95 in data set [1] and in data set [2] were 500 nM and 62 nM, respectively.
As for `Cn1c(C(C)(C)NC(=O)c2cnco2)nc(C(=O)NCc2ccc(F)cc2)c(O)c1=O`, in data set [14], the pIC50 is 8.15. The IC95 in data set [1] and in [2] was 500 nM in each case.
On to `Cn1c(C(C)(C)NC(=O)c2cscn2)nc(C(=O)NCc2ccc(F)cc2)c(O)c1=O`, for which the pIC50 in data set [14] is 8.10. Moreover, the IC95 in [1] was 312 nM; in [2], under 78 nM.
For `CN(C)C(=O)C(=O)NC(C)(C)c1nc(C(=O)NCc2ccc(F)c(Cl)c2)c(O)c(=O)n1C`, the pIC50 in data set [14] was 8.05. The IC95 in data set [1] worked out at 130 nM; in data set [2], 31 nM.
Taken in the same sequence, the figures for `Cn1c(C(C)(C)NC(=O)c2ccccn2)nc(C(=O)NCc2ccc(F)cc2)c(O)c1=O` were 7.70, 1000 nM and 125 nM.
In the same order, the values of `COc1cccc(CNC(=O)c2nc(C(C)(C)NC(=O)C(=O)N(C)C)n(C)c(=O)c2O)c1OC` are 7.68, over 1000 nM and 1000 nM.
In the same order, the values of `Cn1c(C(C)(C)NC(=O)c2c[nH]cn2)nc(C(=O)NCc2ccc(F)cc2)c(O)c1=O` are 8.22, 250 nM and 250 nM.
One may read the bioavailability as the share of a dose that reaches the circulation, judged against a reference dose that is usually intravenous. In the case of `CN(C)C(=O)C(=O)NC(C)(C)c1nc(C(=O)NCc2ccc(F)cc2)c([O-])c(=O)n1C.[Na+]`, the IC95 in [1] was determined as 125 nM. In addition, the figures for the bioavailability in data set [15] and in data set [16] were 36% and 93%, respectively. The values for the Cmax in data set [17] and in data set [18] were 4100 nM and 32000 nM, respectively. Further, the half-life in data set [19] is 2.3 h; in data set [20] it was 11.9 h. In addition, the AUC in [9] stood at 2.2 µM·h; in [21], 47 µM·h. The fraction unbound was 0.65 in data set [10], 0.62 in data set [11], 0.82 in data set [12] and 0.72 in data set [13]. Also, the concentration at 12 h in [22] was found to be 246 nM.
As to `Cn1c(C(C)(C)N2CCOCC2)nc(C(=O)NCc2ccc(F)cc2)c(O)c1=O`, in [14], the pIC50 is 8.52. For the same compound, the IC95 in data set [1] turned out to be 500 nM; in data set [2], 65 nM.
Taken in the same sequence, the figures for `CN(C)C1(c2nc(C(=O)NCc3ccc(F)cc3)c(O)c(=O)n2C)CCOCC1` were 8.70, 1000 nM and 250 nM.
`CC(=O)NC(C)(C)c1nc(C(=O)NCc2ccc(F)cc2)c(O)c(=O)n1C`: in data set [14], the pIC50 was 8.15. For the same compound, the IC95 amounted to 400 nM in data set [1] and 310 nM in data set [2].
In the same order, the values of `CN1CCN(C(=O)C(=O)NC(C)(C)c2nc(C(=O)NCc3ccc(F)cc3)c(O)c(=O)n2C)CC1` are 7.59, 250 nM and 125 nM.
Taken in the same sequence, the figures for `CNC(=O)c1nc(C(C)(C)NC(=O)C(=O)N(C)C)n(C)c(=O)c1O` were under 5.30, over 10000 nM and over 10000 nM.
Taken in the same sequence, the figures for `CN(C)C(C)(C)c1nc(C(=O)NCc2ccc(F)cc2)c(O)c(=O)n1C` were 6.64, over 1000 nM and 1000 nM.
Take `CN(C)S(=O)(=O)NC(C)(C)c1nc(C(=O)NCc2ccc(F)cc2)c(O)c(=O)n1C`: the pIC50 in [14] is 7.92. Also, the results for the IC95 in data set [1] and in data set [2] were 500 nM and 125 nM, respectively.
In the same order, the values of `CN(C)C(=O)C(=O)N(C)C(C)(C)c1nc(C(=O)NCc2ccc(F)cc2)c(O)c(=O)n1C` are 7.82, 125 nM and 62 nM.
Consider `COC(=O)C(=O)NC(C)(C)c1nc(C(=O)NCc2ccc(F)cc2)c(O)c(=O)n1C`, for which the pIC50 in data set [14] is 7.82. The IC95 is over 1000 nM in data set [1] and 1000 nM in [2].
Consider `CN(C)C(=O)NC(C)(C)c1nc(C(=O)NCc2ccc(F)cc2)c(O)c(=O)n1C`, for which the pIC50 in data set [14] is 7.74. Also, the IC95 in data set [1] was over 1000 nM; in data set [2], 1000 nM.
Taken in the same sequence, the figures for `Cn1c(C(C)(C)NC(=O)C(=O)N2CCOCC2)nc(C(=O)NCc2ccc(F)cc2)c(O)c1=O` were 7.70, 125 nM and 125 nM.
On to `Cc1nnc(C(=O)NC(C)(C)c2nc(C(=O)NCc3ccc(F)cc3)c(O)c(=O)n2C)[nH]1`, for which the pIC50 in data set [14] is 8.40. Further, the IC95 worked out at 1000 nM in data set [1] and 250 nM in data set [2].
In the same order, the values of `CN(C)C(=O)C(=O)NC(C)(C)c1nc(C(=O)NCc2ccc(F)cc2S(C)(=O)=O)c(O)c(=O)n1C` are 8.40, 125 nM and 125 nM.
As for `Cn1c(C(C)(C)NC(=O)c2ncccn2)nc(C(=O)NCc2ccc(F)cc2)c(O)c1=O`, the negative-log IC50 (pIC50) in data set [14] was 8.15. Further, the values for the IC95 in [1] and in data set [2] were 50 nM and 20 nM, respectively.
For `Cn1c(C(C)(C)NC(=O)C(=O)O)nc(C(=O)NCc2ccc(F)cc2)c(O)c1=O`, the pIC50 in [14] was 8.40. The figures for the IC95 in data set [1] and in data set [2] were 1000 nM and 250 nM, respectively.
Taken in the same sequence, the figures for `Cn1c(C(C)(C)NS(C)(=O)=O)nc(C(=O)NCc2ccc(F)cc2)c(O)c1=O` were 8.10, 1000 nM and 62 nM.
As to `O=C(/C=C(\O)c1nc[nH]n1)c1ccc(Cc2ccc(F)cc2)o1` [S-1360], the Activity in [3] is listed as 20%; in [4], 50%; in [5], over 50%; in [6], 50%; in [7], 100%.
